Experiments:
[1] = system: PC-3, DU-145, LNCaP, and HeLa; assay: Trypan blue cytotoxicity, panel of cancer cell lines; settings: four cancer cell lines; for cytotoxicity as compared with curcumin: 1 and 10 μM
[2] = system: PC-3, DU145, LNCaP, HeLa; assay: Relative potency versus curcumin over the cancer cell lines, WST-1 and TB; format: cell-based, human; settings: in the tested cancer cell lines

SMILES | activity at 10 μM concentration [1] | cytotoxicity as compared with curcumin [1] | times more potent than curcumin [2]
Cc1nc(/C=C/C(=O)/C=C/c2nc(C)c(-c3ccncc3)s2)sc1-c1ccncc1 [Compound 34, (1E,4E)-1,5-Bis(4-methyl-5-(pyridin-4-yl)thiazol-2-yl)penta-1,4-dien-3-one] | almost inactive | did not show increased or similar cytotoxicity | –
O=C(/C=C/c1cocn1)/C=C/c1cocn1 [Compound 20, (1E,4E)-1,5-Bis(oxazol-4-yl)penta-1,4-dien-3-one] | – | as effective (or slightly more effective) as curcumin | –
Cc1nc(C(F)(F)F)c(/C=C/C(=O)/C=C/c2sc(C)nc2C(F)(F)F)s1 [Compound 24, (1E,4E)-1,5-Bis(2-methyl-4-(trifluoromethyl)thiazol-5-yl)-penta-1,4-dien-3-one] | – | – | 11–36 times
Cn1cc(/C=C/C(=O)/C=C/c2cnn(C)c2)cn1 [Compound 17, (1E,4E)-1,5-Bis(1-methyl-1H-pyrazol-4-yl)penta-1,4-dien-3-one] | almost inactive | did not show increased or similar cytotoxicity | –
O=C(/C=C/c1ccnc2ccccc12)/C=C/c1ccnc2ccccc12 [Compound 32, (1E,4E)-1,5-Di(quinolin-4-yl)penta-1,4-dien-3-one] | – | as effective (or slightly more effective) as curcumin | –
Cn1nc(C(F)(F)F)c(/C=C/C(=O)/C=C/c2c(C(F)(F)F)nn(C)c2Cl)c1Cl [Compound 18, (1E,4E)-1,5-Bis(5-chloro-1-methyl-3-(trifluoromethyl)-1H-pyrazol-4-yl)penta-1,4-dien-3-one] | – | as effective (or slightly more effective) as curcumin | –
O=C(/C=C/c1cc2ccccc2nc1Cl)/C=C/c1cc2ccccc2nc1Cl [Compound 33, (1E,4E)-1,5-Bis(2-chloroquinolin-3-yl)penta-1,4-dien-3-one] | almost inactive | did not show increased or similar cytotoxicity | –
O=C(/C=C/c1nc2ccccc2s1)/C=C/c1nc2ccccc2s1 [Compound 35, (1E,4E)-1,5-Bis(benzo[d]thiazol-2-yl)penta-1,4-dien-3-one] | – | as effective (or slightly more effective) as curcumin | –
O=C(/C=C/c1cccnc1)/C=C/c1cccnc1 [Compound 27, (1E,4E)-1,5-Di(pyridin-3-yl)penta-1,4-dien-3-one] | – | as effective (or slightly more effective) as curcumin | –
O=C(/C=C/c1ccc2ccccc2n1)/C=C/c1ccc2ccccc2n1 [Compound 31, (1E,4E)-1,5-Di(quinolin-2-yl)penta-1,4-dien-3-one] | – | as effective (or slightly more effective) as curcumin | –
Cn1cncc1/C=C/C(=O)/C=C/c1cncn1C [Compound 16, (1E,4E)-1,5-Bis(1-methyl-1H-imidazol-5-yl)penta-1,4-dien-3-one] | – | as effective (or slightly more effective) as curcumin | –
